Measurements: US12692396B2, “Fluorescent labeling agent and fluorescent dye” (artience Co., Ltd., priority 2020, dated 2026)

What was measured:
[1] = tested on: Human epithelium cancer cells A431; test: Evaluation of cell toxicity of fluorescent labeling agent (cell counting kit-8, absorbance at 450 nm); format: cell-based; conditions: labeling agent left one hour, absorbance relative to DMSO medium solution regarded as one
Procedure: <Evaluation of Cell Toxicity of Fluorescent Labeling Agent>
(§1) Human epithelium cancer cells A431 were seeded in a 96-well plate (1×10^4 cells/well). Next, the A431 were cultured for 24 hours using an RPMI 1640 medium to which 10% fetal bovine serum (FBS) and 1% penicillin-streptomycin had been added in an incubator (37° C., 5% CO2-containing Air, humidified environment). As the RPMI 1640 medium, an RPMI-164-Medium manufactured by Sigma-Aldrich Inc. was used.
After cultivation, the medium was removed, the fluorescent labeling agents prepared in Examples 83 to 123 and Comparative Examples 25 to 37 and an RPMI 1640 medium containing 1% dimethyl sulfoxide (DMSO medium solution) were added thereto. These were left to stand in the incubator for one hour and then washed in the RPMI 1640 medium. 10 μL of a cell counting kit-8 (manufactured by Dojindo Laboratories.) was added to each well and left to stand in the incubator (37° C., 5% CO2-containing Air, humidified environment) for one hour. Next, the absorbance at 450 nm was measured using a plate reader (SPARK, manufactured by Tecan Trading AG).
The relative value of the absorbance of each fluorescent labeling agent when the absorbance of the well to which the DMSO medium solution had been added was regarded as one was calculated and evaluated based on the following standards. […] At the time of calculating the relative value of the absorbance of the fluorescent labeling agent, a value obtained by subtracting the absorbance before the addition of the cell counting kit-8 (manufactured by Dojindo Laboratories.) from the measured absorbance was used.
• P (Pass): 0.8 or more • F (Failure): Less than 0.8 <Evaluation of Fluorescence Intensity of Fluorescent Labeling Agent>

[2] = tested on: Human epithelium cancer cells A431; test: Evaluation of fluorescence intensity of fluorescent labeling agent in labeled cells (plate reader); format: cell-based; conditions: one hour, FIG. 1, compared with fluorescent labeling agents 68 and 75
Procedure: as §1, with “environment).” for “environment). As the RPMI 1640 medium, an RPMI-164-Medium manufactured by Sigma-Aldrich Inc. was used.”
After cultivation, the medium was removed, and the fluorescent labeling agents prepared in Examples 127 to 167 and Comparative Examples 25 to 37 were added thereto and left to stand in the incubator for one hour. Next, these were washed in the RPMI 1640 medium. The fluorescence intensities were evaluated in fluorescence wavelength ranges shown in Table 22 using the plate reader (SPARK, manufactured by Tecan Trading AG).

phospholipids = test: Evaluation of property of fluorescent dye being accumulated in phospholipids (labeling agent intensity / dye solution intensity); format: cell-based, Human; conditions: A431 cells, one hour; relative value, comparative compound 12 regarded as one; fluorescent wavelength range as in Table 22 (780-800 nm, 630-650 nm in last line)
Procedure: <Evaluation of Property of Fluorescent Dye being Accumulated in Phospholipids>
The property of each dye being accumulated in phospholipids was calculated from the fluorescence intensity integral value obtained from the fluorescent spectrum of the dye solution and the fluorescence intensity obtained from the fluorescence intensity of the fluorescent labeling agent using an expression (1). The relative value of the property of each fluorescent labeling agent being accumulated in phospholipids when the property of the comparative compound 12 being accumulated in phospholipids was regarded as one was calculated and evaluated based on the following standards. In a case where the relative value is evaluated as 3 or more, it can be said that each fluorescent dye has a favorable property of being accumulated in phospholipids.
• 4: The property of being accumulated in phospholipids is 4 or more. • 3: The property of being accumulated in phospholipids is 2 or more and less than 4. • 2: The property of being accumulated in phospholipids is 1 or more and less than 2. • 1: The property of being accumulated in phospholipids is less than 1. Property of being accumulated in phospholipids=fluorescence intensity of fluorescent labeling agent/fluorescence intensity of dye solution (1)

[3] = tested on: Human epithelium cancer cells A431; test: Evaluation of visibility of cell (fluorescent microscope); format: cell-based; design: key: P (Pass): Clear; F (Failure): Unclear; conditions: A431 cells, labeling agent left one hour
Procedure: <Evaluation of Visibility of Cell>
as §1, with “The” for “Next, the”, “environment).” for “environment). As the RPMI 1640 medium, an RPMI-164-Medium manufactured by Sigma-Aldrich Inc. was used.”
After cultivation, the medium was removed, and the fluorescent labeling agents prepared in Examples 127 to 189 and Comparative Examples 25 to 37 were added thereto and left to stand in the incubator for one hour. Next, these were washed in the RPMI 1640 medium. The dark field images and fluorescent images of the cells were observed using a fluorescent microscope (manufactured by Keyence Corporation, BZ-X800) equipped with an excitation filter for an appropriate wavelength and a fluorescent filter and evaluated based on the following standards.
• P (Pass): Clear • F (Failure): Unclear
The evaluation results of the visibility of the cells labeled with the fluorescent labeling agents 1, 15, 19, 24, 25, 68, and 75 are sequentially shown in FIGS. 2 to 8 (magnification: 10 times, optical uptake time: 1 second).
The evaluation results of the visibility of the cells labeled with the fluorescent labeling agents 42 and 53 are sequentially shown in FIGS. 9 to 10 (magnification: 40 times, optical uptake time: 1 second).
From what has been described above, it has been clarified that the fluorescent labeling agent according to the embodiment of the present invention has excellent characteristics as a fluorescent labeling agent.

## CCOc1cccc2c1C1=NC2=Nc2c3c(OCC)cccc3c3[n]2[Al]([O][Si](C)(C)CCCN)[n]2c(c4cccc(OCC)c4c2=NC2=NC(=N3)c3c(OCC)cccc32)=N1 [Fluorescent dye 1]
[1]
  Cell toxicity: P (P (Pass): 0.8 or more)
[2]
  fluorescence intensity of fluorescent labeling agent: high fluorescence intensities
phospholipids
  Property of being accumulated in phospholipids: 4 (4: The property of being accumulated in phospholipids is 4 or more.)
[3]
  Cell visibility: P

## CCOc1cccc2c1C1=NC2=Nc2c3c(OCC)cccc3c3[n]2[Al]([O]P(=O)(CCC(=O)O)c2ccccc2)[n]2c(c4cccc(OCC)c4c2=NC2=NC(=N3)c3c(OCC)cccc32)=N1 (centres unmarked) [Fluorescent dye 15]
[1]
  Cell toxicity: P (P (Pass): 0.8 or more)
[2]
  fluorescence intensity of fluorescent labeling agent: high fluorescence intensities
phospholipids
  Property of being accumulated in phospholipids: 4 (4: The property of being accumulated in phospholipids is 4 or more.)
[3]
  Cell visibility: P

## CCOc1cccc2c1C1=NC2=Nc2c3c(OCC)cccc3c3[n]2[Al]([O]P(=O)(O)CCC(=O)O)[n]2c(c4cccc(OCC)c4c2=NC2=NC(=N3)c3c(OCC)cccc32)=N1 [Fluorescent dye 17]
[1]
  Cell toxicity: P (P (Pass): 0.8 or more)
phospholipids
  Property of being accumulated in phospholipids: 4 (4: The property of being accumulated in phospholipids is 4 or more.)
[3]
  Cell visibility: P

## CCCCCCCCCCCCCCCCCCc1ccc2c(c1)C1=NC2=Nc2c3cc(CCCCCCCCCCCCCCCCCC)ccc3c3[n]2[Al]([O]S(=O)(=O)c2ccc(CCNC(=O)C(CC(=O)O)OC(C)=O)cc2)[n]2c(c4ccc(CCCCCCCCCCCCCCCCCC)cc4c2=NC2=NC(=N3)c3cc(CCCCCCCCCCCCCCCCCC)ccc32)=N1 (centres unmarked) [Fluorescent dye 28]
[1]
  Cell toxicity: P (P (Pass): 0.8 or more)
phospholipids
  Property of being accumulated in phospholipids: 4 (4: The property of being accumulated in phospholipids is 4 or more.)
[3]
  Cell visibility: P

## CC[N+](CC)(CC)CCC[Si](C)(C)[O][Al]1[n]2c3c4cc(-c5ccccc5)ccc4c2N=C2N=C(N=c4c5cc(-c6ccccc6)ccc5c([n]41)=NC1=NC(=N3)c3ccc(-c4ccccc4)cc31)c1ccc(-c3ccccc3)cc12.[I-] [Fluorescent dye 20]
[1]
  Cell toxicity: P (P (Pass): 0.8 or more)
phospholipids
  Property of being accumulated in phospholipids: 4 (4: The property of being accumulated in phospholipids is 4 or more.)
[3]
  Cell visibility: P

## CC(C)C(CC(=O)O)C(=O)NCCc1ccc(S(=O)(=O)[O][Al]2[n]3c4c5cc(C(C)(C)C)ccc5c3N=C3N=C(N=c5c6cc(C(C)(C)C)ccc6c([n]52)=NC2=NC(=N4)c4ccc(C(C)(C)C)cc42)c2ccc(C(C)(C)C)cc23)cc1 (centres unmarked) [Fluorescent dye 29]
[1]
  Cell toxicity: P (P (Pass): 0.8 or more)
phospholipids
  Property of being accumulated in phospholipids: 4 (4: The property of being accumulated in phospholipids is 4 or more.)
[3]
  Cell visibility: P

## CCOc1cccc2c1C1=NC2=Nc2c3c(OCC)cccc3c3[n]2[Al]([O]C(=O)CCN(C)C)[n]2c(c4cccc(OCC)c4c2=NC2=NC(=N3)c3c(OCC)cccc32)=N1 [Fluorescent dye 14]
[1]
  Cell toxicity: P (P (Pass): 0.8 or more)
phospholipids
  Property of being accumulated in phospholipids: 4 (4: The property of being accumulated in phospholipids is 4 or more.)
[3]
  Cell visibility: P

## O=C(O)C(F)(F)C(F)(F)C(=O)NCCc1ccc(S(=O)(=O)[O][Al]2[n]3c4c5cc(C(F)(F)F)ccc5c3N=C3N=C(N=c5c6cc(C(F)(F)F)ccc6c([n]52)=NC2=NC(=N4)c4ccc(C(F)(F)F)cc42)c2ccc(C(F)(F)F)cc23)cc1 [Fluorescent dye 27]
[1]
  Cell toxicity: P (P (Pass): 0.8 or more)
phospholipids
  Property of being accumulated in phospholipids: 4 (4: The property of being accumulated in phospholipids is 4 or more.)
[3]
  Cell visibility: P

## C[Si](C)(CCCN)[O][Al]1[n]2c3c4cc(-c5ccccc5)ccc4c2N=C2N=C(N=c4c5cc(-c6ccccc6)ccc5c([n]41)=NC1=NC(=N3)c3ccc(-c4ccccc4)cc31)c1ccc(-c3ccccc3)cc12 [Fluorescent dye 2]
[1]
  Cell toxicity: P (P (Pass): 0.8 or more)
phospholipids
  Property of being accumulated in phospholipids: 4 (4: The property of being accumulated in phospholipids is 4 or more.)
[3]
  Cell visibility: P
